In patent US20230112958A1, “Smart Drug Delivery System and Pharmaceutical Kit for Dual Nuclear Medical Cytotoxic Theranostics” (SCV-SpezialChemikalienVertrieb GmbH, priority 2019, published 2023):
Like-named read-outs stand apart in the source and are kept apart here. Blank lines part the entries; values can stand above or below the compound they belong to. Non-standard residues stand in square brackets, D forms with d. Residues, ends and D or L forms follow the SMILES beside them. *: point of attachment. Dolaproine = CO[C@@H]([C@@H]1CCCN1)[C@@H](C)C(=O)O; Dil = CC[C@H](C)[C@H](NC)[C@@H](CC(=O)O)OC; X1 = C[C@@H](N*)[C@@H](O)c1ccccc1; NMeV = CN[C@H](C(=O)O)C(C)C

What was measured:
LNCaP cells = assay: CellTiter Blue cytotoxicity assay; format: cell-based; settings: for IC50: 72 hours incubation, read-out: IC50 (cytotoxic action in vitro)
Protocol: In a CellTiter Blue assay, LNCaP cells were incubated with the substance to be studied for 72 hours, and then the IC50 of the compound was determined.

LNCaP tumor = tested on: LNCaP tumor; parameters: species or system Balb/c mice; settings: mouse, in vivo
Protocol: DATA.QS.KuE was labeled with ^68Ga and tested in vivo on LNCaP tumor-carrying Balb/c mice. […] The selectivity of binding was determined by means of competitive co-injection of the PSMA inhibitor PMPA. […] FIGS. 10a and 10b show the maximum-intensity projections from μPET studies with [^68Ga]-PSMA-11 and, respectively, [^68Ga]-DATA.QS.KuE in LNCaP tumor-carrying Balb/c. FIGS. 11a and 11b Showtime-activity curves of [^68Ga]-PSMA-11 and, respectively, [^68Ga]-DATA.QS.KuE. […] In the case of treatment with highly ionizing radionuclides, for example ^177Lu, rather than ^68Ga, DATA.QS.KuE enables a crucial reduction in nephrotoxicity.

PSMA = target: T1, PSMA (Homo sapiens, UniProt Q04609); assay: Cell-based competitive PSMA binding assay on LNCaP cells against reference 68Ga[Ga]PSMA-10
T1 construct: incubated in the wells with the LNCaP cells for 45 min; endogenous in cells; host or cells: LNCaP cells
T1 sequence (Q04609 whole entry): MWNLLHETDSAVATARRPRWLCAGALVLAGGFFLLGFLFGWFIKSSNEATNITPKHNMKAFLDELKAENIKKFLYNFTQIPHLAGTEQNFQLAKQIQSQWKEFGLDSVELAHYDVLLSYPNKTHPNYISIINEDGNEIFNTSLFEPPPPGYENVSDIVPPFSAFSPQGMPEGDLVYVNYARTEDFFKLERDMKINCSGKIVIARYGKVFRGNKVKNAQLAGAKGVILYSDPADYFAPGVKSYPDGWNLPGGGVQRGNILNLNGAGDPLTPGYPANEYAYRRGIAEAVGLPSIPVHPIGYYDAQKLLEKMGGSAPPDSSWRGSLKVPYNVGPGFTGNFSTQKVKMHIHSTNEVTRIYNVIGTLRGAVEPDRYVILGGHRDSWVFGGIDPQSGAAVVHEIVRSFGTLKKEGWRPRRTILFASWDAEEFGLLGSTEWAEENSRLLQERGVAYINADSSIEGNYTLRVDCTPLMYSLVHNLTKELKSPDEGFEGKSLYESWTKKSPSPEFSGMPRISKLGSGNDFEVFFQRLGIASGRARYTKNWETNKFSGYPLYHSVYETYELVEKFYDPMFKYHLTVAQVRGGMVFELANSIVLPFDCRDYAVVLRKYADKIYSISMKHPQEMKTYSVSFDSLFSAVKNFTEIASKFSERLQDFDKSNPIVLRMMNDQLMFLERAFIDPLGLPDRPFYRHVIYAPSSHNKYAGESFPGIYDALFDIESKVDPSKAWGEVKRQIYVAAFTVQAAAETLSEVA
Protocol: By means of a cell-based assay, the affinity of the target vector-linker units QS.KuE, QS.K.EuE and KuE with a lipophilic linker—analogously to PSMA-617—and the affinity of the substructures NH2.DOTAGA.617.KuE and NH2-DOTAGA.QS.KuE was determined. In addition, the PSMA affinity of the structure MMAE.ValCit.QS.617.KuE which is preferred in accordance with the invention (see scheme 30) was determined.
For the essay, LNCaP cells were pipetted into multiwell plates (Merck Millipore Multiscreen™). The compounds to be analyzed were each admixed with a defined amount or concentration of the reference compound ^68Ga[Ga]PSMA-10 with a known Kd value and incubated in the wells with the LNCaP cells for 45 min. After repeated washing, the cell-bound activity was determined.
In order to determine non-specific binding, all compounds were additionally admixed with an excess of the PSMA inhibitor 2-PMPA (2-(phosphonomethyl)-[…]) and subjected to the same LNCaP assay—as described above.

SMILES: CC[C@H](C)[C@@H]([C@@H](CC(=O)N1CCC[C@H]1[C@H](OC)[C@@H](C)C(=O)N[C@H](C)[C@@H](O)c1ccccc1)OC)N(C)C(=O)[C@@H](NC(=O)[C@@H](NC)C(C)C)C(C)C [MMAE, Monomethyl-auristatin E, reference compound] (H-[NMeV]V[Dil][Dolaproine]-X1)
IC50 (LNCaP cells; Homo sapiens): 0.29 ± 0.12 nM

kidney exposure/dose by comparison with PSMA-11 (LNCaP tumor): considerably lower | tumor enrichment by comparison with PSMA-11 (LNCaP tumor): approximately the same
SMILES: CN(CC(=O)O)C1(CCCCC(=O)NCCNc2c(NCCCC[C@H](NC(=O)N[C@@H](CCC(=O)O)C(=O)O)C(=O)O)c(=O)c2=O)CN(CC(=O)O)CCN(CC(=O)O)C1 [DATA.QS.KuE]

SMILES: CCC(C)C(C(CC(=O)N1CCCC1C(OC)C(C)C(=O)NC(C)C(O)c1ccccc1)OC)N(C)C(=O)C(NC(=O)C(C(C)C)N(C)C(=O)OCc1ccc(NC(=O)C(CCCNC(N)=O)NC(=O)C(Nc2c(NCC3CCC(C(=O)NC(Cc4ccc5ccccc5c4)C(=O)NCCCCC(NC(=O)NC(CCC(=O)O)C(=O)O)C(=O)O)CC3)c(=O)c2=O)C(C)C)cc1)C(C)C (stereo not drawn) [MMAE.ValCit.QS.617.KuE]
cell cytotoxicity in vitro compared with pure active ingredient MMAE (LNCaP cells; 72 hours): somewhat lower | IC50 (LNCaP cells): 32.2 ± 5.7 nM | IC50 (PSMA): 198.1 ± 1.9 nM | Ki (PSMA): 162 ± 3.3 nM

Ki (PSMA; LNCaP cells, competition with 68Ga[Ga]PSMA-10, 45 min incubation, calculated from inhibition curves, read-out: Ki (PSMA binding affinities)): 12.3 ± 3.1 nM | IC50 (PSMA; LNCaP cells, competition with 68Ga[Ga]PSMA-10, 45 min incubation, read-out: IC50 (PSMA binding affinities)): 15.1 ± 3.8 nM
SMILES: O=C(O)CCC(NC(=O)NC(CCCCNC(=O)C(Cc1ccc2ccccc2c1)NC(=O)C1CCC(CNC(=O)CN2CCN(CC(=O)O)CCN(CC(=O)O)CCN(CC(=O)O)CC2)CC1)C(=O)O)C(=O)O (stereo not drawn) [PSMA-617, reference compound]
